Results reported in US20240226055A1, “TREATMENT OF DISORDERS WITH TASIMELTEON” (Vanda Pharmaceuticals Inc., priority 2018, published 2024).

Experiments:
[1] = Two-phase transatlantic travel study (jet lag, five or eight time zones); format: in vivo, human; details: for Objective TST2/3 Night 3, change from baseline: 20 mg for three consecutive nights prior to bedtime; for Objective TST2/3 Night 3, change from baseline / Objective TST2/3 All 3 nights, change from baseline: treated travel vs baseline observational travel
Excerpt: A two-phase transatlantic travel study of 25 subjects (tasimelteon n=13, placebo n=12) comprises a first phase that is an observational travel study to collect baseline data, and a second phase that is a treatment phase. Participants in the study travel either five or eight time zones from Washington, DC to London (five time zones) or San Francisco or Los Angeles to London (eight time zones). Participants stay at their destination for three nights and four days and during randomization receive 20 mg of tasimelteon for three consecutive nights prior to their bedtime. Efficacy is monitored by PSG as well as sleep and wake questionnaire scales.
The primary endpoint of the study is TST for the first 2/3 of the night(s) most likely to be disrupted. These are, from Table 2, Night 3, followed by Night 1 and Night 2.
Measures of global function, including Patient Global Impression of Severity (PGI-S) and KSS also favor tasimeltcon.

[2] = Phase III clinical study of an 8-hour advance in usual bedtime (jet lag disorder circadian challenge); format: in vivo, human
Excerpt: In the course of the trial, volunteers are subjected to a circadian challenge of an 8-hour advance in their usual bedtime, consistent with the circadian challenge induced in travelers crossing eight time zones (e.g., Los Angeles to London or Washington, DC to Moscow) and typically causing jet lag disorder.
The pre-specified primary endpoint used for this purpose is the amount of sleep time in the first two thirds of the night. Secondary endpoints include measures of various sleep parameters-total sleep time (TST), latency to persistent sleep (LPS), and wake after sleep onset (WASO)-as well as next day alertness, measured using the Karolinska Sleepiness Scale (KSS) and Visual Analog Scale (VAS).

[3] = 20 mg for three consecutive nights, Post-Sleep Questionnaire
[4] = 20 mg for three consecutive nights, difference from placebo
[5] = Post-Sleep Questionnaire, difference from placebo
[6] = 20 mg dose, 8-hour bedtime advance, difference from placebo
[7] = 20 mg dose, 8-hour bedtime advance, treatment group value
[8] = 8-hour phase advance, difference from placebo
[9] = 8-hour phase advance, treatment group value

Structure (SMILES): CCC(=O)NC[C@@H]1C[C@H]1c1cccc2c1CCO2 [Hetlioz ®, tasimelteon]
- Objective TST2/3 Night 3, change from baseline ([1]; listed as HETLIOZ ®): 76.2 min
- Objective TST2/3 Night 3, change from baseline ([1]; listed as Tasimelteon): 76 min
- Global measures KSS Day 4, change from baseline ([1]; 20 mg for three consecutive nights, Karolinska Sleepiness Scale): −1.69
- Global measures PGI-S Day 3, change from baseline ([1]; 20 mg for three consecutive nights, Patient Global Impression of Severity): −0.71
- Subjective Sleep Latency Night 3, change from baseline [1, 3]: −20.6
- Subjective Sleep Quality Night 3, change from baseline [1, 3]: 1.31
- Subjective TSTFull All 3 Nights, change from baseline [1, 3]: 240.0
- Subjective TSTFull Night 3, change from baseline [1, 3]: 111.9
- Subjective WASO Night 3, change from baseline [1, 3]: −81.1
- Objective TST2/3 All 3 nights, change from baseline, Difference vs placebo [1, 4]: 90.6 min
- Objective TST2/3 Night 3, change from baseline, Difference vs placebo [1, 4]: 34.8 min
- Objective TST2/3 All 3 nights, change from baseline ([1]; 20 mg for three consecutive nights, listed as HETLIOZ ®): 131.4 min
- Objective TST2/3 All 3 nights, change from baseline ([1]; 20 mg for three consecutive nights, listed as Tasimelteon): 131 min
- Global measures KSS Day 4, change from baseline, Difference vs placebo ([1]; Karolinska Sleepiness Scale, difference from placebo): −1.00
- Global measures PGI-S Day 3, change from baseline, Difference vs placebo ([1]; Patient Global Impression of Severity, difference from placebo): −0.63
- Subjective Sleep Latency Night 3, change from baseline, Difference vs placebo [1, 5]: −26.5
- Subjective Sleep Quality Night 3, change from baseline, Difference vs placebo [1, 5]: 0.95
- Subjective TSTFull All 3 Nights, change from baseline, Difference vs placebo [1, 5]: 174.9
- Subjective TSTFull Night 3, change from baseline, Difference vs placebo [1, 5]: 78.5
- Subjective WASO Night 3, change from baseline, Difference vs placebo [1, 5]: −56.4
- PSG TST2/3 (sleep time in first two thirds of the night, primary endpoint) ([2]; 20 mg dose, 8-hour bedtime advance, healthy volunteers, treatment group value): 216.4 min
- KSS (1-9) average, next day alertness ([2]; 20 mg dose, 8-hour bedtime advance, Karolinska Sleepiness Scale, treatment group value): 4.0
- VAS (0-100) average, next day alertness ([2]; 20 mg dose, 8-hour bedtime advance, Visual Analog Scale, treatment group value): 60.8
- KSS (1-9) average, Diff vs placebo [2, 6]: −0.53
- PSG LPS, Diff vs placebo [2, 6]: -15.08 min
- PSG TST2/3, Diff vs placebo [2, 6]: 60.31 min
- PSG TSTfull, Diff vs placebo [2, 6]: 85.46 min
- PSG WASO, Diff vs placebo [2, 6]: -74.58 min
- VAS (0-100) average, Diff vs placebo [2, 6]: 6.59
- PSG TSTfull, Diff vs placebo ([2]; 20 mg dose, 8-hour bedtime advance, difference from placebo, listed as tasimelteon): 85 min
- PSG LPS (latency to persistent sleep) [2, 7]: 21.8 min
- PSG TSTfull (total sleep time) [2, 7]: 315.8 min
- PSG WASO (wake after sleep onset) [2, 7]: 144.6 min
- PSG REMTotal, Difference vs placebo [2, 8]: 13.7 min
- REMAccumulate, Difference vs placebo [2, 8]: -53.3 min
- REMAchieved, Difference vs placebo [2, 8]: 24.5%
- PSG REMTotal (total REM sleep period) [2, 9]: 48.9 min
- REMAccumulate (time required to accumulate 30 minutes of REM sleep) [2, 9]: 318.7 min
- REMAchieved [2, 9]: 76.1%
